Measured values taken from patent US8361968B2 (Takeda Pharmaceutical Company Limited, priority 2002, dated 2013).
Square brackets hold non-standard residues; d marks the D form. Peptide text beside a SMILES is read from it. Phe(3-Cl) = N[C@@H](Cc1cccc(Cl)c1)C(=O)O; Phe(4-Cl) = N[C@@H](Cc1ccc(Cl)cc1)C(=O)O; Phe(4-NH2) = Nc1ccc(C[C@H](N)C(=O)O)cc1; Phe(2-Cl) = N[C@@H](Cc1ccccc1Cl)C(=O)O; 2Nal = N[C@@H](Cc1ccc2ccccc2c1)C(=O)O; Arg(Me) = CNC(=N)NCCC[C@H](N)C(=O)O; azaGly = NNC(=O)O

The molecules below were run against hOT7T175 (Homo sapiens, UniProt Q969F8, L364H) (assay: Intracellular Ca ion level-increasing activity using FLIPR in hOT7T175/CHO). Settings: relative, Metastin (1-54) = 1.
Chain of hOT7T175 (Q969F8 whole entry L364H): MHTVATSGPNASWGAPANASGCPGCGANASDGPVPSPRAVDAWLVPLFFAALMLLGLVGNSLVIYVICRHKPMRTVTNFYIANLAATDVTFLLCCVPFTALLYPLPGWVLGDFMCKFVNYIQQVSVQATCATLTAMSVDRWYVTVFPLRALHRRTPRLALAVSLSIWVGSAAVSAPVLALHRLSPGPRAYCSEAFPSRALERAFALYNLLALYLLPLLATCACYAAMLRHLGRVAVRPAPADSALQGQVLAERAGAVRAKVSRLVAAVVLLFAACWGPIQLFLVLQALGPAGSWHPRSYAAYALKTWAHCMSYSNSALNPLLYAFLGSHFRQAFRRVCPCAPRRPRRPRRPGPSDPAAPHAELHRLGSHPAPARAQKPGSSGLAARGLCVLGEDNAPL
Assay type: cell-based
Design: expressed in transfected cells; host or cells: CHO/dhfr- cells, obtained from ATCC
Experimental: Assay for Intracellular Ca Ion Level-Increasing Activity Using Flipr
In accordance with the method described in JPA 2000-312590, the intracellular Ca ion level-increasing activity was measured using FLIPR.
The stable expression cell line hOT7T175 was acquired by transduction of expression plasmid pAK-rOT175 for animal cells into CHO/dhff cells, using CellPhect Transfection Kit (Amersham Pharmacia Biotech, Inc.). First, 240 μL of Buffer A (attached to CellPhect Transfection Kit) was added to 9.6 μg of plasmid DNA dissolved in 240 μl of distilled water, followed by stirring. After settling the mixture for 10 minutes, 480 μL of Buffer B (attached to CellPhect Transfection Kit) was added to the mixture, which was vigorously stirred to form DNA-containing liposomes. Then, 4×10^5 CHO/dhff cells (obtained from ATCC) were inoculated on a 60 mm Petri dish. […] After culturing the cells at 37° C. for 6 hours in 5% carbon dioxide gas, the cells were washed twice with serum-free Ham's F-12 medium and 3 ml of 15% glycerol was added to the cells in the Petri dish to treat for 2 minutes. The cells were again washed twice with serum-free Ham's F-12 medium followed by incubation in Ham's F-12 medium supplemented with 10% fetal bovine serum at 37° C. for 15 hours in 5% carbon dioxide gas. The cells were dispersed by trypsin treatment and recovered from the Petri dish. The recovered cells were inoculated on a 6-well plate in 1.25×10^4 cells/well and incubation was initiated at 37° C. in Dulbecco's modified Eagle medium (DMEM) medium (Nissui Seiyaku Co., Ltd.) containing 10% dialyzed fetal bovine serum (JRH BIOSCIENCES, Inc.) under 5% carbon dioxide gas. […] The medium was exchanged on Days 1 and 2 to remove the cells died.
The intracellular Ca ion level-increasing activity of the synthetic peptide in hOT7T175/CHO was determined using FLIPR (Molecular Devices, Inc.).
hOT7T175/CHO was subcultured in DMEM supplemented with 10% dialyzed fetal bovine serum (hereinafter abbreviated as dFBS) and provided for the experiment (hereinafter abbreviated as 10% dFBS/DMEM). The hOT7T175/CHO was suspended in 10% dFBS-DMEM in 15×10^4 cells/ml. The suspension was inoculated on a 96-well plate for FLIPR (Black Plate Clear Bottom, Coster, Inc.) at 200 μL each (3.0×10^4 cells/200 μL/well), followed by incubation at 37° C. overnight in a 5% CO2 incubator (hereinafter simply referred to as the cell plate). Then, 21 ml of HANKS/HBSS (9.8 g of HANKS, 0.35 g of sodium hydrogencarbonate, 20 ml of 1M HEPES; after adjusting the pH to 7.4 with 1N sodium hydroxide, the mixture was sterilized by filtration), 210 μl of 250 mM Probenecid and […] of fetal bovine serum (FBS) were mixed (HANKS/HBSS-Probenecid-FBS).
Furthermore, 2 vials of Fluo3-AM (50 μug/vial) were dissolved in 21 μL of dimethylsulfoxide and 21 μL of 20% Pluronic acid. The resulting solution was added to and mixed with 10 ml of HANKS/HBSS-Probenecid-FBS described above. After the culture medium was removed, the mixture was dispensed onto the cell plate in 100 μL each/well, followed by incubation at 37° C. for an hour in a 5% CO2 incubator (pigment loading). The peptide was dissolved in dimethylsulfoxide in 1×10^−3 M. The peptide solution was diluted with HANKS/HBSS containing 2.5 mM Probenecid, 0.2% BSA and 0.1% CHAPS.

Specific Activity (intracellular Ca ion level-increasing activity)	Compound
1	CNC(=N)NCCC[C@H](NC(=O)[C@H](CC(C)C)NC(=O)NNC(=O)[C@H](Cc1ccccc1)NC(=O)[C@H](CO)NC(=O)[C@H](CC(N)=O)NC(=O)[C@H](Cc1ccccc1)NC(=O)[C@H](CC(N)=O)NC(=O)[C@H](N)Cc1ccc(O)cc1)C(=O)N[C@@H](Cc1ccccc1)C(N)=O [Compound No. 244, D-Tyr-Asn-Phe-Asn-Ser-Phe-AzaGly-Leu-Arg(Me)-Phe-NH2] (H-[dY]NFNSF[azaGly]L[Arg(Me)]F-NH2; N-terminus assumed)
2	CNC(=N)NCCC[C@H](NC(=O)[C@H](CC(C)C)NC(=O)NNC(=O)[C@H](Cc1ccccc1)NC(=O)[C@H](CO)NC(=O)[C@H](CC(N)=O)NC(=O)[C@H](Cc1ccc2ccccc2c1)NC(=O)[C@H](CC(N)=O)NC(=O)[C@H](N)Cc1ccc(O)cc1)C(=O)N[C@@H](Cc1ccccc1)C(N)=O [Compound No. 246, D-Tyr-Asn-Nal(2)-Asn-Ser-Phe-AzaGly-Leu-Arg(Me)-Phe-NH2] (H-[dY]N[2Nal]NSF[azaGly]L[Arg(Me)]F-NH2)
1	CNC(=N)NCCC[C@H](NC(=O)[C@H](CC(C)C)NC(=O)NNC(=O)[C@H](Cc1ccccc1)NC(=O)[C@H](CO)NC(=O)[C@H](CC(N)=O)NC(=O)[C@H](Cc1ccccc1Cl)NC(=O)[C@H](CC(N)=O)NC(=O)[C@H](N)Cc1ccc(O)cc1)C(=O)N[C@@H](Cc1ccccc1)C(N)=O [Compound No. 247, D-Tyr-Asn-Phe(2Cl)-Asn-Ser-Phe-AzaGly-Leu-Arg(Me)-Phe-NH2] (H-[dY]N[Phe(2-Cl)]NSF[azaGly]L[Arg(Me)]F-NH2)
1	CNC(=N)NCCC[C@H](NC(=O)[C@H](CC(C)C)NC(=O)NNC(=O)[C@H](Cc1ccccc1)NC(=O)[C@H](CO)NC(=O)[C@H](CC(N)=O)NC(=O)[C@H](Cc1ccc(Cl)cc1)NC(=O)[C@H](CC(N)=O)NC(=O)[C@H](N)Cc1ccc(O)cc1)C(=O)N[C@@H](Cc1ccccc1)C(N)=O [Compound No. 249, D-Tyr-Asn-Phe(4Cl)-Asn-Ser-Phe-AzaGly-Leu-Arg(Me)-Phe-NH2] (H-[dY]N[Phe(4-Cl)]NSF[azaGly]L[Arg(Me)]F-NH2)
1	CNC(=N)NCCC[C@H](NC(=O)[C@H](CC(C)C)NC(=O)NNC(=O)[C@H](Cc1ccccc1)NC(=O)[C@H](CO)NC(=O)[C@H](CC(N)=O)NC(=O)[C@H](Cc1ccc(N)cc1)NC(=O)[C@H](CC(N)=O)NC(=O)[C@H](N)Cc1ccc(O)cc1)C(=O)N[C@@H](Cc1ccccc1)C(N)=O [Compound No. 250, D-Tyr-Asn-Phe(4NH2)-Asn-Ser-Phe-AzaGly-Leu-Arg(Me)-Phe-NH2] (H-[dY]N[Phe(4-NH2)]NSF[azaGly]L[Arg(Me)]F-NH2)

The remaining lines, values behind:

Compound	Specific Activity (intracellular Ca ion level-increasing activity)
CNC(=N)NCCC[C@H](NC(=O)[C@H](CC(C)C)NC(=O)CNC(=O)[C@H](Cc1ccccc1)NC(=O)[C@H](CO)NC(=O)[C@H](CC(N)=O)NC(=O)[C@H](Cc1c[nH]c2ccccc12)NC(=O)[C@H](N)Cc1ccc(O)cc1)C(=O)N[C@@H](Cc1ccccc1)C(N)=O [Compound No. 217] (H-[dY]WNSFGL[Arg(Me)]F-NH2)	20
CNC(=N)NCCC[C@H](NC(=O)[C@H](CC(C)C)NC(=O)CNC(=O)[C@H](Cc1ccccc1)NC(=O)[C@H](CO)NC(=O)[C@H](CC(N)=O)NC(=O)[C@@H](NC(=O)[C@H](CC(N)=O)NC(=O)[C@H](N)Cc1ccc(O)cc1)C(C)C)C(=O)N[C@@H](Cc1ccccc1)C(N)=O [Compound No. 229] (H-[dY]NVNSFGL[Arg(Me)]F-NH2)	1
CNC(=N)NCCC[C@H](NC(=O)[C@H](CC(C)C)NC(=O)CNC(=O)[C@H](Cc1ccccc1)NC(=O)[C@H](CO)NC(=O)[C@H](CC(N)=O)NC(=O)[C@H](Cc1c[nH]c2ccccc12)NC(=O)[C@@H](CC(N)=O)NC(=O)[C@H](N)Cc1ccc(O)cc1)C(=O)N[C@@H](Cc1ccccc1)C(N)=O [Compound No. 230]	10
CNC(=N)NCCC[C@H](NC(=O)[C@H](CC(C)C)NC(=O)CNC(=O)[C@H](Cc1ccccc1)NC(=O)[C@H](CO)NC(=O)[C@H](CC(N)=O)NC(=O)[C@@H](Cc1c[nH]c2ccccc12)NC(=O)[C@@H](CC(N)=O)NC(=O)[C@H](N)Cc1ccc(O)cc1)C(=O)N[C@@H](Cc1ccccc1)C(N)=O [Compound No. 231, D-Tyr-D-Asn-D-Trp-Asn-Ser-Phe-Gly-Leu-Arg(Me)-Phe-NH2]	1
CNC(=N)NCCC[C@H](NC(=O)[C@H](CC(C)C)NC(=O)NNC(=O)[C@H](Cc1ccccc1)NC(=O)[C@H](CO)NC(=O)[C@H](CC(N)=O)NC(=O)[C@@H](NC(=O)[C@H](CC(N)=O)NC(=O)[C@H](N)Cc1ccc(O)cc1)C(C)C)C(=O)N[C@@H](Cc1ccccc1)C(N)=O [Compound No. 234, D-Tyr-Asn-Val-Asn-Ser-Phe-AzaGly-Leu-Arg(Me)-Phe-NH2] (H-[dY]NVNSF[azaGly]L[Arg(Me)]F-NH2; N-terminus assumed)	1
CNC(=N)NCCC[C@H](NC(=O)[C@H](CC(C)C)NC(=O)NNC(=O)[C@H](Cc1ccccc1)NC(=O)[C@H](CO)NC(=O)[C@H](CC(N)=O)NC(=O)[C@@H](NC(=O)[C@H](N)Cc1ccc(O)cc1)[C@@H](C)O)C(=O)N[C@@H](Cc1ccccc1)C(N)=O [Compound No. 241, D-Tyr-Thr-Asn-Ser-Phe-AzaGly-Leu-Arg(Me)-Phe-NH2] (H-[dY]TNSF[azaGly]L[Arg(Me)]F-NH2)	1
CNC(=N)NCCC[C@H](NC(=O)[C@H](CC(C)C)NC(=O)NNC(=O)[C@H](Cc1ccccc1)NC(=O)[C@H](CO)NC(=O)[C@H](CC(N)=O)NC(=O)[C@@H](Cc1c[nH]c2ccccc12)NC(=O)[C@H](N)Cc1ccc(O)cc1)C(=O)N[C@@H](Cc1ccccc1)C(N)=O [Compound No. 242, D-Tyr-D-Trp-Asn-Ser-Phe-AzaGly-Leu-Arg(Me)-Phe-NH2] (H-[dY][dW]NSF[azaGly]L[Arg(Me)]F-NH2)	2
CNC(=N)NCCC[C@H](NC(=O)[C@H](CC(C)C)NC(=O)NNC(=O)[C@H](Cc1ccccc1)NC(=O)[C@H](CO)NC(=O)[C@H](CC(N)=O)NC(=O)[C@H](Cc1cccc(Cl)c1)NC(=O)[C@H](CC(N)=O)NC(=O)[C@H](N)Cc1ccc(O)cc1)C(=O)N[C@@H](Cc1ccccc1)C(N)=O [Compound No. 248, D-Tyr-Asn-Phe(3Cl)-Asn-Ser-Phe-AzaGly-Leu-Arg(Me)-Phe-NH2] (H-[dY]N[Phe(3-Cl)]NSF[azaGly]L[Arg(Me)]F-NH2)	2
CNC(=N)NCCC[C@H](NC(=O)[C@H](CC(C)C)NC(=O)NNC(=O)[C@H](Cc1ccccc1)NC(=O)[C@H](CO)NC(=O)[C@H](CC(N)=O)NC(=O)[C@H](Cc1ccccc1)NC(=O)[C@H](N)Cc1ccc(O)cc1)C(=O)N[C@@H](Cc1ccccc1)C(N)=O [Compound No. 254, D-Tyr-Phe-Asn-Ser-Phe-AzaGly-Leu-Arg(Me)-Phe-NH2] (H-[dY]FNSF[azaGly]L[Arg(Me)]F-NH2)	1
CNC(=N)NCCC[C@H](NC(=O)[C@H](CC(C)C)NC(=O)NNC(=O)[C@H](Cc1ccccc1)NC(=O)[C@H](CO)NC(=O)[C@H](CC(N)=O)NC(=O)[C@H](Cc1ccc2ccccc2c1)NC(=O)[C@H](N)Cc1ccc(O)cc1)C(=O)N[C@@H](Cc1ccccc1)C(N)=O [Compound No. 255, D-Tyr-Nal(2)-Asn-Ser-Phe-AzaGly-Leu-Arg(Me)-Phe-NH2] (H-[dY][2Nal]NSF[azaGly]L[Arg(Me)]F-NH2)	1
